From article PMC8391988 (2021)

Key:
[1] = test system: poly dG–poly dC (DNA, polymer) G/C; assay: fluorimetric titration, Scatchard; conditions: Na+ (sodium cacodylate, I = 0.05 M); pH 7.0; apparent; per phosphate; n fixed at 0.2; dye 1.3–1.5 × 10^-7 M; per base
[2] = test system: poly rA–poly rU (RNA, polymer) A/U; assay: fluorimetric titration, Scatchard; conditions: Na+ (sodium cacodylate, I = 0.05 M); pH 7.0; apparent; per phosphate; n fixed at 0.2; dye 1.3–1.5 × 10^-7 M; per base
[3] = test system: poly dA–poly dT (DNA, polymer) A/T; assay: fluorimetric titration, Scatchard; conditions: Na+ (sodium cacodylate, I = 0.05 M); pH 7.0; apparent; per phosphate; n fixed at 0.2; dye 1.3–1.5 × 10^-7 M; per base
[4] = test system: poly rG–poly rC (RNA, polymer) G/C; assay: fluorimetric titration, Scatchard; conditions: Na+ (sodium cacodylate, I = 0.05 M); pH 7.0; apparent; per phosphate; n fixed at 0.2; dye 1.3–1.5 × 10^-7 M; per base
[5] = test system: poly dGdC–poly dGdC (DNA, polymer) GC; assay: fluorimetric titration, Scatchard; conditions: Na+ (sodium cacodylate, I = 0.05 M); pH 7.0; apparent; per phosphate; n fixed at 0.2; dye 1.3–1.5 × 10^-7 M; per base
[6] = test system: poly dAdT–poly dAdT (DNA, polymer) AT; assay: fluorimetric titration, Scatchard; conditions: Na+ (sodium cacodylate, I = 0.05 M); pH 7.0; apparent; per phosphate; n fixed at 0.2; dye 1.3–1.5 × 10^-7 M; per base
[7] = test system: poly rA–poly rU (RNA, polymer) A/U; assay: UV thermal melting at 260 nm; conditions: Na+ (sodium cacodylate, I = 0.05 M), pH 7.0, polynucleotide 1–2 × 10^-5 M, per base
[8] = test system: poly dAdT–poly dAdT (DNA, polymer) AT; assay: UV thermal melting at 260 nm; conditions: Na+ (sodium cacodylate, I = 0.05 M); pH 7.0; r = [compound]/[phosphate] = 0.2; polynucleotide 1–2 × 10^-5 M; per base
[9] = r = [compound]/[phosphate] = 0.2

| Compound | log Ks [1] | log Ks [2] | log Ks [3] | log Ks [4] | log Ks [5] | log Ks [6] | ΔTm [7, 9] | ΔTm [8] | ΔTm ([7]; r = 0.1, destabilised (−19.1) at r = 0.2) |
| --- | --- | --- | --- | --- | --- | --- | --- | --- | --- |
| CC(O)C[n+]1c(C=C2C=CN(CCC[N+](C)(C)CCC[N+](C)(C)C)c3ccccc32)sc2ccccc21 (stereo not drawn) | 6.79 | 6.11 | 6.41 | 5.23 | 6.98 | 6.65 | 24.0 °C | 28.6 °C |  |
| CC(O)C[n+]1c(C=C2C=CN(CCC[N+](C)(C)CCC[N+](C)(C)CCCN3C=CC(=Cc4sc5ccccc5[n+]4CC(C)O)c4ccccc43)c3ccccc32)sc2ccccc21 (stereo not drawn) | 7.55 | 7.15 | 6.19 | 4.94 | 7.64 | 7.23 | 3.0 °C | 8.9 °C |  |
| CC(O)C[n+]1c(C=C2C=CN(CCC[N+]3(C)CCC(CCCC4CC[N+](C)(CCCN5C=CC(=Cc6sc7ccccc7[n+]6CC(C)O)c6ccc(Cl)cc65)CC4)CC3)c3cc(Cl)ccc32)sc2ccccc21 (stereo not drawn) | 7.41 | 6.14 | 5.91 | 4.95 | 7.40 | 6.05 | 0.6 °C | 7.1 °C |  |
| CC(O)C[n+]1c(C=C2C=CN(CCC[N+]3(C)CCC(CCCC4CC[N+](C)(CCCN5C=CC(=Cc6sc7ccccc7[n+]6CC(C)O)c6ccccc65)CC4)CC3)c3ccccc32)sc2ccccc21 (stereo not drawn) | 6.63 | 6.14 | 5.89 | 4.79 | 7.20 | 6.98 | 0 °C | 10.7 °C |  |
| CC(O)C[n+]1c(C=C2C=CN(CCC[n+]3ccc(CCCc4cc[n+](CCCN5C=CC(=Cc6sc7ccccc7[n+]6CC(C)O)c6ccccc65)cc4)cc3)c3ccccc32)sc2ccccc21 (stereo not drawn) | 6.78 | 6.22 | 6.23 | 4.76 | 7.04 | 6.68 |  |  | 10.6 °C |
